Laboratory results taken from ChEMBL document CHEMBL1128994, “Carboxylic acid bioisosteres of -linked dipeptide analogues of the folate-based thymidylate synthase (TS) inhibitor, 2-desamino-2-methyl-N10-propargyl-5,8-dideazafolic acid (ICI 198583)” (Bioorg Med Chem Lett, 1996).

What was measured:
[1] = test system: L1210 (1565); assay: Compound was evaluated for the growth inhibition of […].; assay type: functional, cell-based
[2] = test system: L1210; assay: Compound was evaluated for the growth inhibition of mouse L1210 (impaired) cells.; assay type: functional, cell-based
[3] = test system: L1210; assay: Compound was evaluated for the growth inhibition of mouse L1210 cells.; assay type: functional, cell-based
[4] = molecular target: T1, Thymidylate synthase (Mus musculus, UniProt P07607); assay: Compound was evaluated for the inhibition of Thymidylate synthase.
T1 sequence (P07607 whole entry): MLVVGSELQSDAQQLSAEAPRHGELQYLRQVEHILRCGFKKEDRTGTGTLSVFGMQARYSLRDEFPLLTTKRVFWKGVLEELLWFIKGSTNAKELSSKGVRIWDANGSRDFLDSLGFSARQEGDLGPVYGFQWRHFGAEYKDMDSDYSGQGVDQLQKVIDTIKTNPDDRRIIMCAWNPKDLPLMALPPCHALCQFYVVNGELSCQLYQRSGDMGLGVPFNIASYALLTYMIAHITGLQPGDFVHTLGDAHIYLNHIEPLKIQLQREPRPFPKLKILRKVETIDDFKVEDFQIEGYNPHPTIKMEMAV

[5] = molecular target: T1, Thymidylate synthase; assay: Compound was evaluated for the inhibition of Thymidylate synthase in experiment 2
[6] = test system: L1210; assay: Compound was evaluated for the growth inhibition of mouse L1210 cells in experiment 2; assay type: functional, cell-based
[7] = test system: L1210; assay: Compound was evaluated for the growth inhibition of mouse L1210 cells in experiment 1; assay type: functional, cell-based
[8] = molecular target: T1, Thymidylate synthase; assay: Compound was evaluated for the inhibition of Thymidylate synthase in experiment 1

IC50 [1]	IC50 [2]	IC50 ([3]; Mus musculus, L1210)	IC50 [4]	IC50 ([3]; l1210)	IC50 [5]	IC50 [6]	IC50 [7]	IC50 [8]	SMILES
16 µM	15 µM	0.33 µM	–	–	–	–	–	–	C#CCN(Cc1ccc2nc(C)nc(O)c2c1)c1ccc(C(=O)N[C@@H](CCC(=O)N[C@H](CCC(=O)O)C(=O)O)C(=O)O)cc1
1 µM	2 µM	0.35 µM	0.001 µM	0.26 µM	–	–	–	–	C#CCN(Cc1cc2c(O)nc(C)nc2cc1C)c1ccc(C(=O)N[C@@H](CCC(=O)N[C@@H](C)c2nnn[nH]2)C(=O)O)c(F)c1
7.4 µM	8 µM	–	–	–	0.00186 µM	0.75 µM	1.5 µM	0.00082 µM	C#CCN(Cc1cc2c(O)nc(C)nc2cc1C)c1ccc(C(=O)N[C@@H](CCC(=O)N[C@@H](CCc2nnn[nH]2)C(=O)O)C(=O)O)c(F)c1
41 µM	44 µM	–	–	–	0.004 µM	4.9 µM	6.2 µM	0.006 µM	C#CCN(Cc1ccc2nc(C)[nH]c(=O)c2c1)c1ccc(C(=O)N[C@@H](CCC(=O)N[C@@H](CCc2nnn[nH]2)C(=O)O)C(=O)O)cc1
8.7 µM	6.8 µM	0.2 µM	–	–	0.00092 µM	–	–	0.0004 µM	C#CCN(Cc1cc2c(=O)[nH]c(C)nc2cc1C)c1ccc(C(=O)N[C@@H](CCC(=O)NC(CCC(=O)O)C(=O)O)C(=O)O)c(F)c1 (stereo in doubt)
